Data reported in patent EP0799174B1, “BIOCIDAL ALCOHOLS, THEIR PRODUCTION AND THEIR USE” (SCHÜLKE & MAYR GMBH, priority 1994, dated 1996).

Columns and labels:
[1] = test system: resident skin flora; experiment: Skin antiseptic a): action against the resident skin flora; format: in vivo; conditions: formulation with 1.0% aromatic alcohol in 1-propanol 30.0%, 2-propanol 45.0%; concentration and time
[2] = test system: Staphylococcus aureus ATCC 6538; experiment: Skin antiseptic b): quantitative suspension test according to DGHM; format: cell-based; conditions: 1.0% 8, formulation 1-propanol 15.0%, 2-propanol 30.0%
From the text: (§1) • 1-propanol 15.0% • 2-propanol 30.0% • aromatic alcohol 1.0% • dem. water to 100 [table]

[3] = test system: Pseudomonas aeruginosa ATCC 15442; experiment: as above; format: cell-based; conditions: 1.0% 8, formulation 1-propanol 15.0%, 2-propanol 30.0%
From the text: as §1

[4] = test system: Candida albicans ATCC 10231; experiment: as above; format: cell-based; conditions: 1.0% 8, formulation 1-propanol 15.0%, 2-propanol 30.0%
From the text: as §1

[5] = test system: Ps. aeruginosa; experiment: Quantitative surface test according to DGHM, alcoholic surface disinfectant; format: cell-based; conditions: additive (0.05% for single substances) in ethanol 25.0 % / 1-propanol 35.0 % formulation, germs deposited after approx. 20 minutes
From the text: Standard formulation: • ethanol (MEK denatured) 25.0 % • 1-propanol 35.0 % • perfume 0.02 % • benzotriazole 0.001 % • Marlipal 013/70 0.1% (isotridecanpolyethyleneglycol-(7)-ether = C13 oxo alcohol + 7 mol ethylene oxide) • active ingredient additive x% • dem. water to 100 Test germ: Ps. aeruginosa Test method:
Quantitative surface test according to DGHM (Deutsche Gesellschaft für Hygiene and Microbiology = German Association for Hygiene and Microbiology). In order to exclude the effectiveness of the readily volatile alcohol components (ethanol, 1-propanol), the preparations were deposited onto the surfaces and the germs were deposited after approx. 20 minutes. Test surfaces: PVC and OP tiles Data as reduction factors (log stages)

[6] = test system: Germ mixture of Staphylococcus aureus, Staphylococcus epidermis, Escherichia coli, Klebsiella pneumoniae, Enterobacter gergoviae, Pseudomonas aeruginosa …; experiment: Preservative test: weekly loading of the sample with germ suspension; format: cell-based; conditions: aromatic alcohol 0.5% in sulfosuccinate 12.0% / betaine 3.0% formulation
From the text: Standard formulation: • sulfosuccinate 12.0% • betaine 3.0% • aromatic alcohol 0.5% • re-fatting agent • skin care additives • thickener • dem. water to 100 Test germs: Germ mixture of Staphylococcus aureus, Staphylococcus epidermis, Escherichia coli, Klebsiella pneumoniae, Enterobacter gergoviae, Pseudomonas aeruginosa, Pseudomonas fluorescens, Pseudomonas putida, Aspergillus niger, Penicillium funiculosum, Candida albicans; Total germ count 10^8-10^9/ml. Test method: weekly loading of the sample with germ suspension; smear onto CS and Sabouraud agar. See also K.-H. Diehl, P. Oltmanns, J. Ramsbotham, Seife, Öle, Fette, Wachse 118 (1992) 546.
Data expressed semi-qualitatively: • - no growth < 10^2 CFU/g (CFU = colony-forming units) • + slight growth approx. 10^3 CFU/g • ++ moderate growth approx. 10^4-10^5 CFU/g • +++ heavy growth > 10^5 CFU/g

SMILES: CCCCCC(=Cc1ccccc1)CO [Alcohol 8, α-amyl cinnamyl alcohol]
- action against the resident skin flora [1]: 100%, 15 seconds
- reduction factors (log stages) ([2]; column 25, contact time 1'): 3.6 log stages
- reduction factors (log stages) ([2]; column 25, contact time 2'): 4.7 log stages
- reduction factors (log stages) ([2]; column 25, contact time 5'): >5.8 log stages
- reduction factors (log stages) ([2]; column 25, contact time 30"): 2.8 log stages
- reduction factors (log stages) ([2]; column 50, contact time 1'): >5.5 log stages
- reduction factors (log stages) ([2]; column 50, contact time 2'): >5.9 log stages
- reduction factors (log stages) ([2]; column 50, contact time 5'): >5.8 log stages
- reduction factors (log stages) ([2]; column 50, contact time 30"): >5.6 log stages
- reduction factors (log stages) ([2]; column 75, contact time 1'): >5.5 log stages
- reduction factors (log stages) ([2]; column 75, contact time 2'): >5.9 log stages
- reduction factors (log stages) ([2]; column 75, contact time 5'): >5.8 log stages
- reduction factors (log stages) ([2]; column 75, contact time 30"): >5.6 log stages
- reduction factors (log stages) ([3]; column 25, contact time 1'): 0 log stages
- reduction factors (log stages) ([3]; column 25, contact time 2'): 0 log stages
- reduction factors (log stages) ([3]; column 25, contact time 5'): 0 log stages
- reduction factors (log stages) ([3]; column 25, contact time 30"): 0 log stages
- reduction factors (log stages) ([3]; column 50, contact time 1'): >5.8 log stages
- reduction factors (log stages) ([3]; column 50, contact time 2'): >5.7 log stages
- reduction factors (log stages) ([3]; column 50, contact time 5'): >5.7 log stages
- reduction factors (log stages) ([3]; column 50, contact time 30"): >5.6 log stages
- reduction factors (log stages) ([3]; column 75, contact time 1'): >5.8 log stages
- reduction factors (log stages) ([3]; column 75, contact time 2'): >5.7 log stages
- reduction factors (log stages) ([3]; column 75, contact time 5'): >5.7 log stages
- reduction factors (log stages) ([3]; column 75, contact time 30"): >5.6 log stages
- reduction factors (log stages) ([4]; column 25, contact time 1'): 0.6 log stages
- reduction factors (log stages) ([4]; column 25, contact time 2'): 1.1 log stages
- reduction factors (log stages) ([4]; column 25, contact time 5'): 1.7 log stages
- reduction factors (log stages) ([4]; column 25, contact time 30"): 0.5 log stages
- reduction factors (log stages) ([4]; column 50, contact time 1'): 3.5 log stages
- reduction factors (log stages) ([4]; column 50, contact time 2'): >4.9 log stages
- reduction factors (log stages) ([4]; column 50, contact time 5'): >5.1 log stages
- reduction factors (log stages) ([4]; column 50, contact time 30"): 2.7 log stages
- reduction factors (log stages) ([4]; column 75, contact time 1'): >4.6 log stages
- reduction factors (log stages) ([4]; column 75, contact time 2'): >4.9 log stages
- reduction factors (log stages) ([4]; column 75, contact time 5'): >5.1 log stages
- reduction factors (log stages) ([4]; column 75, contact time 30"): >4.6 log stages

SMILES: OCCCc1ccccc1 [Alcohol 1, 3-phenyl propanol, reference compound]
- reduction factors (log stages) ([5]; PVC, 30'): 0 log stages
- reduction factors (log stages) ([5]; PVC, 60'): 0 log stages
- reduction factors (log stages) ([5]; PVC, 240'): 0 log stages
- reduction factors (log stages) ([5]; Tiles, 30'): 0 log stages
- reduction factors (log stages) ([5]; Tiles, 60'): 0 log stages
- reduction factors (log stages) ([5]; Tiles, 240'): 0 log stages
- growth, 1st week ([6]; 1st week): + (slight growth approx. 10^3 CFU/g)
- growth, 2nd week ([6]; 2nd week): + (slight growth approx. 10^3 CFU/g)
- growth, 3rd week ([6]; 3rd week): - (no growth < 10^2 CFU/g)
- growth, 4th week ([6]; 4th week): - (no growth < 10^2 CFU/g)
- growth, 5th week ([6]; 5th week): - (no growth < 10^2 CFU/g)
